In a melting point compilation (Tetko et al.; mined from patent text by program, amines drawn as free bases though some values may be those of a salt) one finds melting point data, which are given here for 92 molecules.

Molecules are shown by their SMILES.

Turning to `Cc1cc(CC(=O)O)ccc1NC(=O)Nc1ccccc1C(F)(F)F`, the melting point lay within 262 to 263 °C.
With `Cn1nc([N+](=O)[O-])cc1CO`, the melting point fell in the range of 66 to 68 °C.
The molecule `COC(=O)c1ccc(S(C)(=O)=O)c(-c2ccon2)c1Cl` registered a melting point of 145 to 147 °C.
Turning to `CCCCn1ccc(C=CC(=O)O)cc1=O`, the melting point lay in the range of 131 to 134 °C.
Next, `CN(C)CCCNS(=O)(=O)c1cccc([N+](=O)[O-])c1`: 84 to 87 °C; `COc1ccccc1Oc1c(NS(=O)(=O)c2ccc(C(C)(C)C)cc2)nc(CO)nc1OCCOc1ncc(Br)cn1`: 161 to 162 °C; `COc1ccc(C2CN(Cc3ccc4ccccc4n3)C(=O)N(Cc3ccc4ccccc4n3)C2)cc1OC1CC2CCC1C2` (configuration not stated): 135 to 136 °C.
Molecule `CC(C)(N=C=O)c1ccc2cc(C(C)(C)N=C=O)ccc2c1` registered a melting point of 85.5 to 87 °C.
The molecule `CNS(=O)(=O)Cc1ccc(NC(=N)c2ccc3[nH]cc(CCN)c3c2)cc1` displayed a melting point of 63 to 65 °C.
Take `Cn1cc2c(OCC3COC(Cn4ccnc4)(c4ccc(Cl)cc4Cl)O3)cc(-c3ccccc3)nc2n1` (configuration not stated): the melting point is 227 to 229 °C.
Next, `O=C(CCl)Nc1ccc2ncnc(Nc3cccc(Br)c3)c2c1`: above 300 °C; `CC12CC(=O)C3C(CCC4CC=CCC43C)C1CCC2C#N` (configuration not stated): 189 to 191 °C; `CC(=O)Nc1c(C#N)c(C#N)nn1-c1c(Cl)cc(C(F)(F)F)cc1Cl`: 208 to 209 °C.
Consider `S=C1CSc2cc(Cl)ccc2N1`, for which the melting point was in the range of 202 to 204 °C.
Next, `c1coc(-c2ccc(-c3cn([C@H]4CN5CCC4CC5)nn3)s2)c1`: 180 °C; `CC(=O)c1ccc(Nc2c(C(=O)NOCCO)ccc(F)c2F)c(Cl)c1`: 162 °C; `O=C(NCN1CCCCCCCC1=O)NCN1CCCC1=O`: 149 to 150 °C.
Molecule `CC(C)(C)c1nc(-c2ccc(F)cc2)c(-c2ccc(S(C)(=O)=O)cc2)s1` came in with a melting point of 144 to 145 °C.
As to `O=C(CCCCCl)c1cc2c3c(c1)CC(=O)N3CCC2`, the melting point fell in the range of 89 to 90 °C.
The molecule `O=[N+]([O-])c1ccc2nc3c(nc2c1)N1CCCCC1CO3` (configuration not stated) yielded a melting point of 226 to 229 °C.
As to `CC1CC1n1cc(C(=O)O)c(=O)c2cc(F)c(F)c(F)c21` (configuration not stated), the melting point lay within 167 to 168 °C.
With `FC(F)(F)Sc1ccc(C(F)(F)F)cc1`, the melting point fell in the range of 30 to 31 °C.
Next, `Cc1ccc(CC2(O)CCN(CC(=O)Nc3ccc(O[Si](C)(C)C(C)(C)C)cc3)CC2)cc1`: 136 to 138 °C; `O=C(CNC(=O)C1CCCCC1)c1ccco1`: 110 to 111 °C.
With `CCCCOc1cc(=O)n(C)c2ccccc12` the figure was 77 to 80 °C; with `COc1ccc(C2(c3ccc(OC)cc3)CC2(Br)Br)cc1`, 173 to 175 °C.
`CC1(C)O[C@@H]2[C@@H](O1)[C@H](C(=O)O)O[C@H]2n1cnc2c(N)nc(I)nc21` yielded a melting point of 187 to 190 °C.
Next, `Oc1ccc(-c2nnc(CCCCCc3ccccc3)o2)cc1`: 118 to 123 °C; `CSc1ncc(S(=O)(=O)NC(C)(C)C)c(Cl)n1`: 117 to 118 °C; `CN(C)C=CC(=O)c1ccc(-c2ccc(N(c3ccccc3)c3ccccc3)cc2)cc1`: 166 to 167 °C.
`N#Cn1c(=O)c2ccccc2n(CCCCN2CCC(OC(c3ccccc3)c3ccccc3)CC2)c1=O` yielded a melting point of 106 to 107 °C.
Next, `O=C(O)C1C=CCN2C(=O)C(CCS)(Cc3ccccc3)C(=O)N12` (configuration not stated): 151 to 154 °C; `c1ccc2c(c1)cnc1nnnn12`: 150 °C; `Cn1c(Cc2ccccc2)noc1=O`: 105 to 107 °C.
In the case of `Cn1nnnc1SCCCSc1ncccc1O`, the melting point lay within 87.5 to 88.5 °C.
Consider `C[C@]12CCC(=O)N[C@@H]1CCc1cc(Sc3cnc4ccccc4c3)ccc12`, for which the melting point is 168 to 170 °C.
Take `COC(=O)c1ccc(-n2cccc2C=O)cc1`: the melting point lay in the range of 103 to 105 °C.
In turn, `CC(=O)N1N=C(c2ccc(N)cc2)c2cc3c(cc2C=C1C)OCO3` showed a melting point of 175 to 180 °C.
In turn, `CC(C)(C)c1ccc(COc2cc(C(O)C#Cc3ccc(C(=O)O)cc3)cc3c2C(C)(C)CCC3(C)C)cc1` (configuration not stated) showed a melting point of 254 °C.
`CC(C)(C)[Si](C)(C)Oc1ccc2[nH]nc(N3C(=O)c4ccccc4C3=O)c2c1`: the melting point lay in the range of 225 to 228 °C.
For `CC(C)(C)OC(=O)NNc1ccc(N)cc1`, the melting point came to 128 °C.
`CC(=O)N1CCc2ccc(NS(=O)(=O)c3ccccc3)cc2C1` displayed a melting point of 180 to 182 °C.
With `CC(C)Oc1ccccc1-c1ncc(C#N)c(=O)[nH]1` the figure was 182 to 184 °C; with `COC(=O)c1nn(C)nc1C=O`, 107 to 108 °C.
Take `COc1ccc(N2CCN(c3c(C)c(C)c4c(c3C)CC(C)(CN3CCCCC3)O4)CC2)cc1` (configuration not stated): the melting point lay in the range of 122 to 125 °C.
Next, `CN1C=C(C(=O)O)C(C(=N)O)=NC1N1CCN(Cc2ccccc2)CC1` (configuration not stated): 158 to 160 °C; `CC1Cc2c(N3C(=O)C4CCCCN4C3=O)ccc(Cl)c2O1` (configuration not stated): 145 to 148 °C; `CCN(CC)c1ccc2cc(C(=O)NN)oc2c1`: 127 to 129 °C.
With `COc1ccc(N2CCN(C(=O)CC3CCc4ccccc43)CC2)cc1` (configuration not stated), the melting point fell in the range of 111 to 112 °C.
As for `CC(C)CCN1C(=O)C(NC(=O)Oc2cccc(Br)c2)C(=O)N(c2ccccc2)c2ccc(Cl)cc21` (configuration not stated), the melting point lay in the range of 144 to 145 °C.
Consider `CN1C(=O)Cc2cc(F)ccc21`, for which the melting point was in the range of 128 to 130 °C.
`O=C(NN=Cc1ccccc1)c1ccc(O)cc1` gave a melting point of 226 °C.
With `Cc1ccc(CNCCOc2cccc3[nH]c(=S)[nH]c23)cc1`, the melting point was above 250 °C.
For the molecule `CNc1nc(-c2cccc(C(=O)Nc3ccccc3)c2)c2cc(OC)c(OC)cc2n1`, the melting point lay in the range of 242 to 244 °C.
Consider `COc1ccc2c(c1)CC(C)C1C2CCC2(C)C(=O)CCC12` (configuration not stated), for which the melting point lay in the range of 167 to 170 °C.
For the molecule `CCN1CCN2C(=O)c3ccccc3C12c1ccc(Cl)cc1` (configuration not stated), the melting point came out at 114 °C.
With `O=C(Cl)c1cc(Cl)c(Cl)c(Cl)n1`, the melting point was 60 to 62 °C.
Consider `C=CCSc1nc(N)nc2c1ncn2C1C=CC(CO)C1` (configuration not stated), for which the melting point was in the range of 108 to 110 °C.
For the molecule `COc1cc(OC)cc(N2CCC(c3c(N)nc(N)[nH]c3=O)CC2)c1`, the melting point is above 250 °C.
With `CN1CCN(c2ccc(C(=O)NC3CCCNC(=O)C3)cc2)CC1` (configuration not stated) the figure was 232 to 234 °C; with `Cc1ncnc(-c2cc([N+](=O)[O-])c(C#N)cc2F)c1Cl`, 123 to 125 °C; with `CN(C)C(=O)Nc1cccc(S(N)(=O)=O)c1`, 193 to 194 °C.
The molecule `O=C(NCCl)Oc1cccc(Cl)c1` had a melting point of 90 °C.
Next, `COC(=O)CCCC#Cc1cc(Cl)ccc1NS(=O)(=O)c1sc(NC(C)=O)nc1C`: 147 to 149 °C; `O=C(Nc1cccc2c1C(=O)c1c-2n[nH]c1-c1ccc(C(=O)N2CCNCC2)s1)NN1CCOCC1`: 241 to 242 °C.
As to `OC1=CC(=NNc2ccc(F)cc2)CCC1`, the melting point was 175 to 176 °C.
Regarding `CCOC(=O)C(CCCc1ccccc1)(NC(C)=O)C(=O)OCC`, the melting point was 76 to 77 °C.
For the molecule `CCCCCCCCCCCCCCCCCCOc1c(OCC(CC)CCCC)ccc2c1C(=O)c1ccccc1C2=O` (configuration not stated), the melting point lay within 61 to 68 °C.
As for `C#CCOc1cccc(NC(=O)c2ccccc2C)c1`, the melting point was 93 to 95 °C.
Molecule `Cc1cc(C2(c3cccc(-c4cncnc4)c3)N=C(N)N(C)C2=O)ccc1O[C@H](C)c1ccccc1` (some centres not stated) yielded a melting point of 112 to 114 °C.
In turn, `O=C1CCCCCCCCCCC(=O)OCCC1` had a melting point of 33 °C.
Next, `CC(=CC(=O)c1cccnc1)N(C)C`: 62 to 64 °C; `N#Cc1ccc(CC(=O)c2c(O)c3cccnc3n(-c3ccccc3)c2=O)cc1`: 227 to 230 °C; `NC(Cc1c[nH]c2c(Br)cccc12)C(=O)O` (configuration not stated): above 260 °C.
`O=C1OCCN1CCN1CCN(C2Cc3cc(Cl)ccc3Oc3ccc(F)cc32)CC1` (configuration not stated) gave a melting point of 180 to 182 °C.
With `COc1ccc(Cl)cc1[C@]1(F)C(=O)N(C(=O)NC(C)(C)C(=O)O)c2cc(C(F)(F)F)ccc21` the figure was 57 to 60 °C; with `CN(C)c1cc(-c2nnn(Cc3ccc(C(=O)O)cc3)n2)ccc1OC(=O)C(C)(C)C`, 177 to 178 °C; with `COC(=O)C(C)(C)CCCOc1cc(C)c(OCc2ccccc2)c(C)c1C`, 67 to 68 °C.
As to `CC(=Cc1ccc(N(C)C)cc1C)[N+](=O)[O-]`, the melting point was in the range of 75 to 76 °C.
For `C[Si](C)(C)c1cc(O)c([Si](C)(C)C)cc1O`, the melting point stood at 162 °C.
Next, `Fc1ccc2[nH]c3c(c2c1)CN(CCc1ccccn1)CC3`: 199 to 201 °C; `CCC(=O)c1c[nH]c2cc(C(=O)OC)ccc12`: 229 to 231 °C.
Next, `CC(=O)c1ccc(CNC(=O)c2cccnc2Oc2cccnc2)s1`: 201 to 203 °C.
With `O=C(O)c1ccc(NCCCOc2cccc3ccccc23)cc1` the figure was 146 to 147 °C.
Molecule `COc1ccc(C(Sc2cc(Oc3ccc(F)cc3)ccc2N)C(O)C(=O)O)cc1` (configuration not stated) displayed a melting point of 190 to 193 °C.
As for `Nc1ccc(S(=O)(=O)C[N+](=O)[O-])cc1`, the melting point fell in the range of 132 to 133 °C.
`CCCCCCCCCCCC(=O)c1ccc2c(Cl)cccc2c1O` registered a melting point of 86 to 87 °C.
Molecule `CC(C)(CO)CNc1nccc(-c2c(-c3ccc(F)cc3)nc3occn23)n1` yielded a melting point of 149 °C.
Molecule `CCCC(CCC)n1ccc(=O)c2c(Cl)cc(C)nc21` had a melting point of 82 to 85 °C.
In the case of `CCOC(=O)C1=C(N)NC(N)=C(C(=O)OC(C)C)C1c1ccccc1[N+](=O)[O-]` (configuration not stated), the melting point came to 110 °C.
`COC(=O)c1cccc(OCc2nc(-c3ccccc3)oc2C)n1` yielded a melting point of 97 to 98 °C.
As for `CC(C)(C)C(NC(=O)c1cccc(Cl)c1)Nc1c(Nc2cnccn2)c(=O)c1=O` (configuration not stated), the melting point lay within 245 to 247 °C.
